Data set [1] concerns Candida albicans 4324. Put plainly: Broth microdilution antifungal susceptibility (MIC/MFC). Type of data set: cell-based. The settings on record: strain 4324, FLC resistant; for MIC: 37 °C, 24 h. The protocol:
(§1) In this study, 10 clinical Candida albicans isolates, comprising of 5 fluconazole susceptible and 5 fluconazole resistant, were used. C. albicans SC5314 was also used as a control laboratory strain. Clinical strains used in this study were stored at −80 °C supplemented with 20% glycerol in the Department of Clinical Microbiology and Infectious Diseases, University of the Witwatersrand, Johannesburg and were previously collected under the ethical clearance number M000402, obtained from the Human Research Ethics Committee, University of the Witwatersrand. For experimental purpose each strain from glycerol stock was recovered on Sabouraud Dextrose (SDA) agar plates at 37 °C for 24 h.
(§2) Minimum Inhibitory Concentration (MIC) and Minimum Fungicidal Concentrations (MFC) of all newly synthesized eugenol-tosylate congeners (ETC-1–ETC-7) against C. albicans strains were determined by broth microdilution assay in accordance with the approved guidelines described by Clinical and Laboratory Standards Institute (CLSI) guidelines M27-A[38]. The test compounds were prepared in 1% DMSO to a stock concentration of 8192 µg/ml. Two-fold dilutions of test compounds (100 µL) were prepared in 96-well flat-bottom microtiter plates, inoculated with 100 µl of inoculum (1 × 10^6 cells/mL) and incubated at 37 °C for 24 hours. In every set of experiment, positive control (fluconazole), negative vehicle control (1% DMSO) and culture control (media and cells only) were included. MIC’s were determined visibly as the lowest concentration of the test compounds that inhibited growth of test organism. To determine MFC, each well without visible growth was sub-cultured onto agar plates. Concentration in the first well with no growth on plate was taken as MFC. […] The experiment was performed in triplicate to validate the results.

For data set [2], the system named is Candida albicans 4175. The data set is described as above. Type of data set: cell-based. The protocol:
as §1, §2

For data set [3], the system named is Candida albicans 4576. The description is as above. It is filed as cell-based. The settings on record: strain 4576, FLC susceptible; for MIC: 37 °C, 24 h. The protocol: as §1, §2
Data set [4] deals with Candida albicans 4563. The description is as above. The settings on record: strain 4563, FLC susceptible; for MIC: 37 °C, 24 h. Type of data set: cell-based. How it is done:
as §1, §2

Data set [5] relates to Candida albicans 4180. The data set is described as above. It is filed as cell-based. The settings on record: strain 4180, FLC susceptible; for MIC: 37 °C, 24 h. How it is done: as §1, §2
Data set [6] concerns Candida albicans 5112. The data set is described as above. It is filed as cell-based. Particulars: strain 5112, FLC resistant; for MIC: 37 °C, 24 h. How it is done:
as §1, §2

In data set [7] the test system is Candida albicans SC5314. Described as above. It is filed as cell-based. The settings on record: SC5314, FLC susceptible; for MIC: 37 °C, 24 h. The protocol:
as §1, §2

The test system of data set [8] is Candida albicans 4179. The data set is described as above. It is filed as cell-based. Particulars: strain 4179, FLC susceptible; for MIC: 37 °C, 24 h. How it is done:
as §1, §2

Data set [9] deals with Candida albicans 4106. The data set is described as above. The settings on record: strain 4106, FLC resistant; for MIC: 37 °C, 24 h. Type of data set: cell-based. The protocol:
as §1, §2

In data set [10] the test system is Candida albicans 4122. The data set is described as above. It is filed as cell-based. The settings on record: strain 4122, FLC resistant; for MIC: 37 °C, 24 h. The protocol: as §1, §2
In data set [11] the test system is Candida albicans 4135. The description is as above. Particulars: strain 4135, FLC resistant; for MIC: 37 °C, 24 h. Type of data set: cell-based. How it is done: as §1, §2
Data set [12] concerns fluconazole susceptible and resistant C. albicans strains. Put plainly: Broth microdilution antifungal susceptibility, ranges over strains. It is filed as cell-based. The settings on record: Candida albicans. The protocol: as §1, §2
On the technique in general: Dilution methods test growth across graded concentrations, often in twofold steps.

The subject of data set [13] is C. albicans 4175, C. albicans 5112 and C. albicans SC5314. Nature of the data set: FITC annexin V/PI staining flow cytometry, ranges over three strains. It is filed as cell-based, Candida albicans. The settings on record: 250 μmol/L, positive control. How it is done:
(§3) To study the effect of test compounds on apoptotic markers protoplasts were prepared as described previously, with modifications. Briefly, mid-exponential phase cells were harvested and exposed to various concentrations of test compounds (0.5 × MIC, 1 × MIC and 2×MIC) for 3 h. The cells were then washed twice with protoplast buffer- I (1 M sorbitol, 50 mM tris base, 10 mM MgCl2 and 30 mM DTT) and incubated in the same buffer for 15 minutes at 25 °C, followed by centrifugation at 1500 rpm for 5 minutes. Supernatant was removed and cells were incubated with buffer- II (1 M sorbitol, 50 mM tris base, 10 mM MgCl2 and 1 mM DTT) supplemented with lyticase enzyme (≥1 µg/mL) used to digest the cell wall for 1 h at 25 °C. Buffer- II were removed by centrifugation and then cells were incubated with buffer- III (1 M sorbitol, 50 mM tris base and 10 mM MgCl2) for 20 minutes at room temperature. After the incubation cells were again centrifuged at 1500 rpm for 5 minutes and supernatant was discarded. Protoplasts then finally washed once with PBS and re-suspended in the same for further use. In each washing steps the volume of these protoplast buffers were 5 times to cell volume with pH 7.4.
This assay was used to identify early apoptosis by detecting movement of phosphatidylserine (PS) from the inner to the outer leaflet of plasma membrane. FITC annexin V Apoptosis Detection Kit I (BD Biosciences, CA, USA) was used according to the manufacturer’s instructions. Protoplasts of C. albicans cells treated with different concentrations of the test compounds, as mentioned in above section, were resuspended in 1X annexin V binding buffer ([…]) at a concentration of 1 × 10^6 cells per ml. To the 100 µl of this solution, 5 µl each of FITC annexin V and propidium iodide (PI) was added. Tubes were gently vortexed and incubated for 15 minutes at 25 °C in the dark. After incubation, 400 µl of 1X annexin V binding buffer was added to each tube and analyzed using the BD LSRFortessa Flow cytometer (Becton Dickinson, NJ, USA). The cell populations in four different quadrants of a quadrant dot plot were analyzed and interpreted as; Q1: necrosis (annexin V^−/PI^+), Q2: late apoptosis (annexin V^+/PI^+), Q3: early apoptosis (annexin V^+/PI^−) and Q4: viable cells (annexin V^−/PI^−), by using software FlowJo_V10.
(In flow cytometry, cells or beads pass a laser one at a time.)

Data set [14] shares this test system. Nature of the data set: TUNEL assay for DNA damage. Type of data set: cell-based, Candida albicans. Particulars: 250 μmol/L, positive control. The protocol: as §3, with “Protoplasts then finally washed once with PBS and re-suspended in the same for further use. In each washing steps the volume of these protoplast buffers were 5 times to cell volume with pH 7.4.” left out
TUNEL assay was used to detect the DNA damage, a hallmark for late stages of apoptosis. […] Slides were examined by fluorescence microscopy using Zeiss Laser Scanning Confocal Microscope (LSM) 780 (Carl Zeiss Microscopy, Jena, Germany) with an excitation wavelength of 495 nm and emission wavelength of 519 nm. […] Images were further analyzed by using software ImageJ.

The subject of data set [15] is horse red blood cells. Nature of the data set: Cytotoxicity by haemolytic assay. It is filed as cell-based. The protocol:
The cytotoxicity of the test compounds was determined on horse red blood cells (NHLS, Johannesburg, South Africa) by testing the haemolytic activity of these compounds using the method described previously, with some modifications. Briefly, in a sterile 15 ml falcon tube 5 ml of horse blood was centrifuged at 2000 × rpm for 10 minutes. The supernatant was discarded, and the cell pellet was washed three times with chilled PBS solution. The final pellet was used to yield a 10% RBC suspension with chilled PBS. The 10% suspension were further diluted to 1:10 in PBS, then 100 µl of this suspension was added to different concentration of test compounds (0.5 × MIC, 1 × MIC and 2 × MIC) in 1.5 ml tubes. The tubes were then incubated for 60 minutes at 37 °C followed by centrifugation at 2000 × rpm for 10 minutes. From each tube, 200 µl of the supernatant was transferred to a flat-bottomed 96-well microtiter plate and absorbance was monitored at 450 nm spectrophotometrically with an iMark microplate reader (Bio-Rad laboratories, CA, USA). Triton X-100 (1%) and PBS were used as positive and negative controls respectively. The percentage of haemolysis was calculated by the following equation: %haemolysis=A450oftestcompoundtreatedsample−A450ofbuffertreatedsample/A450of1%TritonX−100treatedsample−A450ofbuffertreatedsample×100%

Where [16] appears, read: Candida albicans, strain 4175, FLC susceptible.
[17] abbreviates: Candida albicans, strain 4175, FLC susceptible, 37 °C, 24 h, read-out: MIC.
Setting [18] is: over the tested C. albicans strains.

In brackets after ≈: the same amount, converted by molar mass. Read-outs that look alike come from different tables or passages of the source.

For orientation: MFC means the lowest tested concentration that kills the fungus rather than only halting it. Broadly, the MIC is the smallest concentration in the dilution series that meets the test's criterion for growth inhibition. Consider `C=CCc1ccc(OS(=O)(=O)c2ccccc2)c(OC)c1` [ETC-2, 2-methoxy-4-(prop-2-en-1-yl)-phenylbenzenesulfonate], for which the MFC in data set [1] came out at 256 µg/mL (≈ 841 µM); in data set [2] (setting [16]), 64 µg/mL (≈ 210 µM); in data set [3], 256 µg/mL (≈ 841 µM); in [4], 512 µg/mL (≈ 1680 µM); in [5] it was 256 µg/mL (≈ 841 µM); in [6], 512 µg/mL (≈ 1680 µM). For the same molecule, the MFC was 64 µg/mL (≈ 210 µM) in data set [7]; 256 µg/mL (≈ 841 µM) in data set [8]; 256 µg/mL (≈ 841 µM) in data set [9]; 512 µg/mL (≈ 1680 µM) in [10]; 512 µg/mL (≈ 1680 µM) in data set [11]. The MIC in [1] was 128 µg/mL (≈ 421 µM); in data set [2] (setting [17]) it was 32 µg/mL (≈ 105 µM); in data set [3], 128 µg/mL (≈ 421 µM); in data set [4], 256 µg/mL (≈ 841 µM); in data set [5], 64 µg/mL (≈ 210 µM); in [6], 256 µg/mL (≈ 841 µM). In addition, the minimum inhibitory concentration (MIC) in data set [7] worked out at 32 µg/mL (≈ 105 µM); in data set [8], 128 µg/mL (≈ 421 µM); in data set [9], 64 µg/mL (≈ 210 µM); in data set [10], 256 µg/mL (≈ 841 µM); in [11], 128 µg/mL (≈ 421 µM).

For `C=CCc1ccc(O)c(OC)c1` [EUG, 2-methoxy-4-(prop-2-en-1-yl)phenol, reference compound], the MFC in [12] (setting [18]), in data set [1], in data set [2] (setting [16]), in [3], in data set [4] and in data set [5] was 1000 µg/mL (≈ 6090 µM) in each case. Moreover, the MFC in data set [6], in [7], in data set [8], in data set [9], in data set [10] and in data set [11] was 1000 µg/mL (≈ 6090 µM) throughout. Further, the MIC in data set [12] (setting [18]), in data set [1], in data set [2] (setting [17]), in data set [3], in data set [4] and in data set [5] was 500 µg/mL (≈ 3040 µM) each time. The MIC in [6], in data set [7], in [8], in [9], in data set [10] and in [11] was 500 µg/mL (≈ 3040 µM) each time.

For `OC(Cn1cncn1)(Cn1cncn1)c1ccc(F)cc1F` [FLC, fluconazole, reference compound], the minimal inhibitory concentration (MIC) is 8 to 64 µg/mL (≈ 26.1 to 209 µM) in data set [12] (fluconazole resistant strains, range); 0.125 to 0.25 µg/mL (≈ 0.408 to 0.816 µM) in data set [12] (fluconazole susceptible strains, range); 16 µg/mL (≈ 52.2 µM) in [1]; 0.125 µg/mL (≈ 0.408 µM) in data set [2] (Candida albicans, 4175, 24 h); 0.25 µg/mL (≈ 0.816 µM) in [3]; 0.25 µg/mL (≈ 0.816 µM) in data set [4]. The MIC came out at 0.25 µg/mL (≈ 0.816 µM) in [5]; 64 µg/mL (≈ 209 µM) in data set [6]; 0.25 µg/mL (≈ 0.816 µM) in data set [7]; 0.25 µg/mL (≈ 0.816 µM) in data set [8]; 8 µg/mL (≈ 26.1 µM) in data set [9]; 32 µg/mL (≈ 104 µM) in [10]. The molecule further gave an MIC in data set [11] of 32 µg/mL (≈ 104 µM).

Take `OO` [H2O2, reference compound]: in data set [13], the early apoptosis is 32–33%, the late apoptosis is on record as 50–51% and the necrosis is 6–7%. The “TUNEL green fluorescence (late apoptotic cells)” value in data set [14] is “increased green fluorescence”.

Triton X-100 [reference compound] had a lysis in data set [15] of 100%.

The values above are taken from article PMC6985109, “Cellular apoptosis and necrosis as therapeutic targets for novel Eugenol Tosylate Congeners against Candida albicans” (Scientific Reports, 2020).
